Source: US20040162345A1, “Compounds with NEP/MP-inhibitory activity and uses thereof” (Solvay Pharmaceuticals GmbH, priority 2001, published 2004)
Entries after “also recorded” stand apart in the source; their conditions may differ. Where two headings read alike, the source gives them in different places.

Experiments:
[1] = target: Neutral endopeptidase (E.C. 3.4.24.11) (Sus scrofa, UniProt A0A4X1SQE6); assay: NEP enzyme inhibition assay (methionin-enkephalin substrate, HPLC); type: biochemical, pig
Chain of Neutral endopeptidase (E.C. 3.4.24.11) (A0A4X1SQE6 entry or part of it): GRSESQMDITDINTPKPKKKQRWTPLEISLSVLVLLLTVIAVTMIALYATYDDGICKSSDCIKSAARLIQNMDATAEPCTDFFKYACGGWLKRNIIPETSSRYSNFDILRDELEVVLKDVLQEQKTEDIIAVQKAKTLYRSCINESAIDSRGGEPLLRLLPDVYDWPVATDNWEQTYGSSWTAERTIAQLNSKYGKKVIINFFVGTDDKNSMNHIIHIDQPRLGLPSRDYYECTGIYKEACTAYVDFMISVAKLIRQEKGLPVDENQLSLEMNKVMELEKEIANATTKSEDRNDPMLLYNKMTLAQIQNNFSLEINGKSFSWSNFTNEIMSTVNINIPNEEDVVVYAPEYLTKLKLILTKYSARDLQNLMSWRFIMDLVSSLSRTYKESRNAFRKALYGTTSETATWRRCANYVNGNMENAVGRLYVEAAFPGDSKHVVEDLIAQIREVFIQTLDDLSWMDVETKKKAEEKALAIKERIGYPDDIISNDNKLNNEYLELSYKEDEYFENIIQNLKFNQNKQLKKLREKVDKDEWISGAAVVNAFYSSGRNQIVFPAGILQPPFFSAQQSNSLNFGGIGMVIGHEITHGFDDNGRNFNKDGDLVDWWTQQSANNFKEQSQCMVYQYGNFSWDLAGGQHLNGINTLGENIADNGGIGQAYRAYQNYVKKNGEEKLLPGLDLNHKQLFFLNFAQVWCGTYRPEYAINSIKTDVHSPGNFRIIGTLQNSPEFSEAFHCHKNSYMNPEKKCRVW
Method: Neutral endopeptidase (E.C. 3.4.24.11) was prepared from pig kidney cortex according to the method of Gee et al. (Biochem J 1985 May 15;228(1):119-26) and purified as reported by Relton et al. (Biochem J 1983 Dec. 1;215(3):519-23). For the enzyme inhibition assay 10 ng of the purified enzyme, 20 μM substrate (methionin-enkephalin) and various inhibitor concentrations were used. The assay buffer was 50 mM Tris-(hydroxymethyl)-aminomethan/HCl pH 7.4, the total assay volume was 100 μl. After a preincubation period of 5 min of enzyme and inhibitor, the substrate was added and subsequently a second incubation phase for enzyme induced substrate hydrolysis at 37° C. for 30 min was initiated. The enzymatic reaction was stopped by heating at 95° C. for 5 min. After centrifugation the supernatant was subjected to HPLC. The products of enzymatic substrate hydrolysis were separated from the native substrate by HPLC technique and the inhibitor potency calculated by comparing the peak areas of the products with the peak area of native substrate for both, the samples with and without inhibitor (control). Blanks without enzyme, controls without inhibitor, samples with inhibitor solvent instead of the inhibitor and samples with a standard inhibitor were added to each assay run.
(§1) Furthermore, the potency of metalloprotease inhibitor compounds and reference compounds to suppress the conversion of big-ET to ET-1 was examined as described in this example 7, using a labeled fluorescent big-ET-1 analog. The procedures applied in the enzyme assays are described above in the examples 4 with regard to IGS5, in example 5 with regard to NEP, and in example 6 with regard to ECE.

[2] = target: T1, His6-tagged IGS5 ectodomain (Homo sapiens, UniProt Q495T6); assay: IGS5 enzyme inhibition assay (fluorescence-quenched big-ET-1 analog, HPLC); type: biochemical; details: for IC50: conversion of labeled fluorescent big-ET-1 analog
T1 construct: Enzyme: IGS-5 (sol hu)(his)6; or: His6-tagged IGS5 ectodomain;; made in house; host or cells: Sf9 insect cells, recombinant baculovirus IGBV73, purified from culture supernatant
T1 sequence (Q495T6 49-779 limits assumed): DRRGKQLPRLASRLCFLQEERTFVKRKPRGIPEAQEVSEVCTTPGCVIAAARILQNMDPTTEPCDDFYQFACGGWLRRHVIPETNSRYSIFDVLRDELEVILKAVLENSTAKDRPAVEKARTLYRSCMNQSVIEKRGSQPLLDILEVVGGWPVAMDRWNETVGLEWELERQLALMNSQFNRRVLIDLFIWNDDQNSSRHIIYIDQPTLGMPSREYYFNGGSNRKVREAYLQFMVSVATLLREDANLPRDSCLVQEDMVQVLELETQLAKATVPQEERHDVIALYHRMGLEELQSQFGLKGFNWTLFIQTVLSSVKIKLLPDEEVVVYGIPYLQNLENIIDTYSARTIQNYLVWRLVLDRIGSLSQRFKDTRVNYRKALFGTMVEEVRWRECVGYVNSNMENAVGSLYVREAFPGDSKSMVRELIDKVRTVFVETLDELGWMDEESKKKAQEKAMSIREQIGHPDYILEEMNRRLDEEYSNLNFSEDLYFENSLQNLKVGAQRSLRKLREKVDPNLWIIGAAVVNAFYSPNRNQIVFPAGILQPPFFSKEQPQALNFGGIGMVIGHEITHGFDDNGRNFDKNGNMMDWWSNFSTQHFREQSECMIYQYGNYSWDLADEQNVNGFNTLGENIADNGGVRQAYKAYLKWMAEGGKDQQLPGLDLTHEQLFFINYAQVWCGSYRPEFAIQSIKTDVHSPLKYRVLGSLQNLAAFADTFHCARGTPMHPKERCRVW
Method: The enzymatic activity of IGS5 polypeptides of the invention was tested with regard to the metabolism of biologically active peptides. In particular it was tested whether these IGS5 polypeptides may act on a variety of vasoactive peptides known in the state of the art e.g. such like atrial natriuretic peptide (ANP), bradykinin, big-endothelin (big-ET-1), endothelin (ET-1), substance P and angiotensin-1. In the context of the present invention in particular it was tested whether the IGS5 ectodomain, which is a novel human metalloprotease, hydrolyzes said vasoactive peptides. For comparison the assay was also performed for a known member of the metalloprotease family which was described earlier as soluble secreted endopeptidase (SEP) by Emoto et al. (J. Biol. Chem., Vol. 274 (1999): pp. 32469-32477). Furthermore, it was tested whether the activity of IGS5 to convert a big-ET-1 analog (the so-called 17 aa big-ET-1) may be inhibited by reference compounds that are used to determine the inhibition properties with regard to enzymes having ECE and/or NEP-characteristics.
Enzyme: IGS-5 (sol hu)(his)6; or: His6-tagged IGS5 ectodomain;
stock solution: 53 μg/ml in 20 mM HEPES pH 7.2, 5% glycerol, 0.005% Tween20, 100 mM NaCl, purity >99%; storage at 4° C.
working solution: stock solution diluted with assay buffer to 10 μg/ml.
Substrate: Mca-Asp-Ile-Ala-Trp-Phe-Dpa-[…]COOH;
Fluorescence-quenched big-ET-1 analog;
Assay buffer: 100 mM Tris pH 7.0, 250 mM NaCl.
All test compounds were dissolved in DMSO at 10 mM and were further diluted with assay buffer.
A quantity of 70 μl of the assay buffer, of 10 μl enzyme working solution and of 10 μl test compound solution were mixed in an Eppendorf vial and preincubated at 37° C. for 15 minutes. Then, 10 μl substrate stock solution was added and the reaction mixture was incubated at 37° C. for 60 minutes to allow for enzymatic hydrolysis. Subsequently the enzymatic reaction was terminated by heating at 95° C. for 5 minutes. After centrifugation (Heraeus Biofuge B, 3 min) the supernatant was subjected to HPLC analysis.
In order to separate the remaining substrate from the cleavage products reversed phase HPLC technique was used with a CC 125/4 Nucleosil 300/5 C18 RP column and a CC 8/4 Nucleosil 100/5 C18 precolumn (commercially available from Macherey-Nagel, Düren, Germany). Thus, 60 μl of the reaction samples obtained in Example 7b were injected into the HPLC, and the column was eluted at a flow rate of 1 ml/min by applying the following gradient and solutions: […]
The increasing fluorescence signal of the HPLC-peak of the peptide with the unquenched Mca-fluorophor after hydrolysis was taken as the basis for any calculation.
This signal was compared for the samples with and without inhibitor and % inhibition was calculated on basis of the respective peak areas.
% inhib=100*(1−Ainhib/Acontrol)
All samples were run in duplicate and mean values were used.
as §1

[3] = target: T2, Recombinant human COOH-terminal His6-tagged endothelin converting enzyme-1 (Homo sapiens, UniProt P42892); assay: ECE enzyme inhibition assay (17 amino acid truncated big endothelin-1, HPLC); type: biochemical
T2 construct: His6 (C); purchased Innogenetics, Ghent, Belgium; host or cells: Sf9 cells
T2 sequence (P42892 1-770): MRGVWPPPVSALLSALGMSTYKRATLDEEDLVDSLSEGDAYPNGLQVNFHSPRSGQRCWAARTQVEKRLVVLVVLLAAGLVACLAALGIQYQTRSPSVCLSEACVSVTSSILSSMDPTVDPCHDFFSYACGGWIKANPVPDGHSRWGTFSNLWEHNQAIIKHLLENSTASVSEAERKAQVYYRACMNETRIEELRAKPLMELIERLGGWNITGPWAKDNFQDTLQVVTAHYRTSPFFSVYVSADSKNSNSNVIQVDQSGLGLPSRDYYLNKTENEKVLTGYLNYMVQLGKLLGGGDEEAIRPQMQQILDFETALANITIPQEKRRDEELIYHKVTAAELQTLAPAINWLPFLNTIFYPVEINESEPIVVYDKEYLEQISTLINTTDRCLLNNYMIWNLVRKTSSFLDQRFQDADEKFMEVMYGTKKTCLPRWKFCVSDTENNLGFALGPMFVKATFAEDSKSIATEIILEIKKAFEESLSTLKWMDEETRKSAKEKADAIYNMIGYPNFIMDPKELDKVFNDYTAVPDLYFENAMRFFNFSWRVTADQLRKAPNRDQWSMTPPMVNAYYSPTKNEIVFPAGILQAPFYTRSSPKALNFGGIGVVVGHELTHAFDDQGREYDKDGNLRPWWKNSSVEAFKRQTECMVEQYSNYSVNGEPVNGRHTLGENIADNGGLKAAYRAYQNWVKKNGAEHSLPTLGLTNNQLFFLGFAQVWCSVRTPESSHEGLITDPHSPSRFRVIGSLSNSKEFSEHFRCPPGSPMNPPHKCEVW
Method: The enzyme inhibition assay comprised enzyme (2.8 μg), 5 μg substrate (moderately modified 17 amino acid truncated big endothelin-1), inhibitor at various final concentrations and 100 mM Tris-buffer (Tris-hydroxymethl-aminomethan/HCl, pH 7.0+150 mM NaCl) in a final volume of 100 μl. Pre-incubation of enzyme with inhibitor for 15 min at 37° C. was performed before substrate addition and incubation (60 min at 37° C.) for enzymatic hydrolysis. The enzymatic reaction was stopped by heating at 95° C. for 5 min. After centrifugation the supernatant was subjected to HPLC for separation of enzymatic hydrolysis products from undegraded substrate. % inhibition was calculated on the basis of peak areas for products and uncleaved substrate for the inhibited reaction in comparison to the control (without inhibitor). Blanks without enzyme, controls without inhibitor, samples with inhibitor solvent instead of the inhibitor and samples with a standard inhibitor were added to each assay run.

[4] = system: patients with congestive heart failure; assay: Open, baseline controlled pilot trial in patients with congestive heart failure; type: in vivo, human
Method: (§2) To proof the concept of clinical efficacy and safety of compound Ia-2 in man, 6 clinical trials were conducted in healthy volunteers and 2 proof of concept trials were conducted in patients: One randomized, placebo-controlled double-blind trial in patients with hypertension (N=191) and one open, baseline controlled pilot trial in patients with congestive heart failure (N=29). […] In the Intent-to-treat patient population (ITT), office diastolic blood pressure versus placebo decreased by −6.9 mmHg (last value under treatment; p<0.001) and office systolic blood pressure versus placebo decreased by −9.2 mmHg (last value under treatment; p=0.003) at the highest dose investigated (200 mg bid).

healthy volunteers = assay: Double-blind placebo-controlled clinical study, big-ET-induced pressure response; type: in vivo, human; details: thirteen healthy volunteers
Method: as §2

[5] = system: patients with WHO grade I-II hypertension; assay: Randomized, placebo-controlled double-blind 4-week trial in patients with hypertension; type: in vivo, human; details: 200 mg bid, ITT, last value under treatment
Method: as §2

volunteers and patients = assay: Clinical trials, plasma ANP and cGMP following oral dosing; type: in vivo, human
Method: as §2

| IC50 ([1]; 20 μM methionin-enkephalin, read-out: NEP IC50) | IC50 [2] | Structure (SMILES) | inhibition of IGS5 activity (in words) [2] | IC50 [3] | IC50 [1] | change of plasma big-ET from baseline ([4]; 200 mg) | plasma levels of big-ET following administration ([4]; 200 mg, baseline 4.9 fmol/ml) | change of plasma big-ET from baseline ([4]; 400 mg) | plasma levels of big-ET following administration ([4]; 400 mg, baseline 2.3 fmol/ml) | ANP levels (healthy volunteers) | ET-1 levels (healthy volunteers) | big-ET levels (healthy volunteers; compared to placebo group) | big-ET-induced pressure response (healthy volunteers; versus placebo) | office diastolic blood pressure versus placebo ([5]; p<0.001) | office systolic blood pressure versus placebo ([5]; p=0.003) | plasma concentrations of ANP and its second messenger cGMP (volunteers and patients) |
| --- | --- | --- | --- | --- | --- | --- | --- | --- | --- | --- | --- | --- | --- | --- | --- | --- |
| 42 nM | 1300 nM | O=C(O)C(Cc1ccc2c(c1)oc1ccccc12)NCP(=O)(O)O (centres unmarked) [CGS-35066] | Inhibition of IGS5 could be observed at higher concentrations only | 5 nM |  |  |  |  |  |  |  |  |  |  |  |  |
|  | 1.2 nM | CCOC(=O)[C@H](CCc1ccccc1)CC1(C(=O)N[C@H]2CCc3ccccc3N(CC(=O)O)C2=O)CCCC1 [compound Ia-2, (3S,2′R)-3-{1-[2′-(ethoxycarbonyl)-4′-phenylbutyl]-cyclopentane-1-carbonylamino}-2,3,4,5-tetrahydro-2-oxo-1H-1-benzazepine-1-acetic acid] |  |  |  | +32.6% | 6.5 fmol/mL | +56% | 3.5 fmol/mL | clear dose related increase | did not increase | increased dose dependently | dose-dependently inhibited | −6.9 mmHg | −9.2 mmHg | significantly increased and sustained |

| Structure (SMILES) | IC50 ([1]; 20 μM methionin-enkephalin, read-out: NEP IC50) | IC50 [2] | inhibition of IGS5 activity (in words) [2] | IC50 [3] | IC50 [1] | change of plasma big-ET from baseline ([4]; 200 mg) | plasma levels of big-ET following administration ([4]; 200 mg, baseline 4.9 fmol/ml) | change of plasma big-ET from baseline ([4]; 400 mg) | plasma levels of big-ET following administration ([4]; 400 mg, baseline 2.3 fmol/ml) | ANP levels (healthy volunteers) | ET-1 levels (healthy volunteers) | big-ET levels (healthy volunteers; compared to placebo group) | big-ET-induced pressure response (healthy volunteers; versus placebo) | office diastolic blood pressure versus placebo ([5]; p<0.001) | office systolic blood pressure versus placebo ([5]; p=0.003) | plasma concentrations of ANP and its second messenger cGMP (volunteers and patients) |
| --- | --- | --- | --- | --- | --- | --- | --- | --- | --- | --- | --- | --- | --- | --- | --- | --- |
| O=C(O)CNC(=O)C(CS)Cc1ccccc1 (centres unmarked) [Thiorphan] |  | > 1000 nM | no inhibition of IGS5; also recorded: do not affect the activity of IGS5 | > 10000 nM | 2.4 nM |  |  |  |  |  |  |  |  |  |  |  |
